Laboratory results as given in patent US6596863B2, “Medical composition containing nitroetheneamine Derivative or salt there of as active constituent” (Ishihara Sangyo Kaisha, Ltd., priority 1998, dated 2003).
Read-outs that look alike come from different tables or passages of the source. Blank lines part the entries; values can stand above or below the compound they belong to.

Experiments:
[1] = biological target: T1, human MMP-9 (gelatinase B) (Homo sapiens, UniProt P14780); test: Inhibition activity against human MMP-9 (gelatinase B), fluorescent peptide substrate; type: biochemical
T1 construct: endogenous in cells; host or cells: HT1080 human fibrosarcoma cells (ATCC CCL-121), PMA-stimulated; enzyme purified from the culture supernatant
T1 sequence (P14780 107-707 limits assumed): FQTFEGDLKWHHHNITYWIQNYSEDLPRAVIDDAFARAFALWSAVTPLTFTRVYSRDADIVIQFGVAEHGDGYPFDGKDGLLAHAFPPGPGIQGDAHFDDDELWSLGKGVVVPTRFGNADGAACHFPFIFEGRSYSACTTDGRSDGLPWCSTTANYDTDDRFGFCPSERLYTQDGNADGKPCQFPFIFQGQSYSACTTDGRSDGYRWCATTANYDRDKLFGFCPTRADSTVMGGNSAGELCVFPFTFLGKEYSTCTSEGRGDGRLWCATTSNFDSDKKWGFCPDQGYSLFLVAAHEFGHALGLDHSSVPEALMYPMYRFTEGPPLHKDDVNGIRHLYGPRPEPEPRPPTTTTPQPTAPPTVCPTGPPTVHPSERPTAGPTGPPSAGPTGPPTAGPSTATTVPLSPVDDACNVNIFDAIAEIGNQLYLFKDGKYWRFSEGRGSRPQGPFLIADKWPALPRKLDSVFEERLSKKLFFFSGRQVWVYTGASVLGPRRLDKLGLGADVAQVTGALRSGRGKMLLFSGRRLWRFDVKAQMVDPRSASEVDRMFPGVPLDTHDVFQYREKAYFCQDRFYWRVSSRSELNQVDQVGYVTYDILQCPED
Description: Human MMP-9 (gelatinase B) was purified by the following method from a culture supernatant of HT1080 cells (human fibrosarcoma).
2.5×10^6 HT1080 cells (ATCC CCL-121, purchased from Dainippon Seiyaku) were inoculated to a tissue culture dish (Code No. 3020-100, manufactured by Iwaki Glass Co., Ltd.) having a diameter of 10 cm and containing 10 ml of Dulbecco's Modified Eagle Medium (DME, No. D-5648, manufactured by Sigma Co.) containing 10% fetal bovine serum (FBS: REHATUIN™, Code No. 1020-90, manufactured by Intergen Co.) and cultured for 72 hours at 37° C. in an atmosphere comprising 5% of CO2 and 95% of air (Carbon Dioxide Incubator LNA-122D Model, manufactured by Tabai Co.). Then, the medium was changed to 10 ml of a DME culture medium containing no FBS, and phorbol 12-myristate 13-acetate (PMA, code No. 163-114851, manufactured by Wako Pure Chemical Industries, Ltd.) was added so that the final concentration became 10 ng/ml. Under the same conditions, the culturing was carried out for further 20 hours, whereupon the culture supernatant was collected and subjected to cool centrifugation at 4° C. for 5 minutes (cool centrifugal separator, manufactured by Hitachi) to remove cell fragments.
The pH of a conditioned medium (50 ml) containing MMP-9, thus prepared, was adjusted to 8.0 with 0.2N NaOH. […] Namely, the above-mentioned conditioned medium was passed through DEAE-Sephacel (manufactured by Pharmacia, gel volume: about 35 ml) preliminarily equilibrated with 50 mM Tris-HCl, pH 8.0 (A buffer), and a non-adsorption fraction was collected. Then, it was added to Dye Matrix Gel Green A (manufactured by Amicon Co., gel volume: about 6 ml) preliminarily equilibrated with 50 mM Tris-HCl, pH 7.5/10 MM CaCl2/0.05% Brij 35/0.02% NaN3 (B buffer) and thoroughly washed with the same buffer, whereupon the adsorbed enzyme was eluted with a 1M NaCl-containing B buffer. About 7.5 ml of the eluted fraction was diluted twice with the B buffer and added to Gelatin-Sepharose 4B (manufactured by Pharmacia, gel volume: about 6 ml) preliminarily equilibrated with a 0.5 M NaCl-containing B buffer. It was thoroughly washed with a 0.5M NaCl-containing B buffer, and eluted with the B buffer containing 10% of dimethylsulfoxide (DMSO) and 0.5 M of NaCl. 5.5 ml of the eluted fraction was dialyzed against a 0.1 M NaCl-containing B buffer to obtain 5.2 ml of a purified enzyme solution. The purified MMP-9 standard product was confirmed to have a single band of 92 kDa by a protein staining by SDS electrophoresis, and further, it was confirmed to have an adequate gelatin decomposing activity by gelatinzymography (carried out in accordance with a method by Howard E. W. et al; Journal Biological Chemistry, Vol. 266, 13064-13069, 1991) and to have an adequate substrate decomposing activity by the after-mentioned measurement employing a fluorescent peptide substrate specific to MMP.
The inhibition activity against human MMP-9 was measured by the following method in accordance with the method by C. G. Knight et al (FEBS Letters, Vol, 296, 263-266, 1992) employing a fluorescent peptide substrate (7-methoxycoumarin-4-yl)Acetyl-Pro-Leu-Gly-Leu-(3-[2,4-dinitrophenyl]—Ala—Arg-NH2, Code 3163-VC, manufactured by Peptide Institute, Inc.
Further, as the case requires, commercially available human MMP-9 purified enzyme (No. YU-18003, manufactured by Kabushiki Kaisha Yagai Chuo Kenkyusho; used in a final concentration of from 0.0125 to 0.025 unit/ml, No. CC079, manufactured by Chemicon International, Inc.; used in a final concentration of 0.2 μg/ml) was used for the tests. […]

[2] = intermediates, compounds of the formula (IV), 1st measurement, read-out: MMP-9 inhibition activities IC50, 1st
[3] = intermediates, compounds of the formula (IV), 2nd measurement, read-out: MMP-9 inhibition activities IC50, 2nd
[4] = intermediates, compounds of the formula (IV), average of 1st and 2nd (or single measurement), read-out: MMP-9 inhibition activities IC50, Average
[5] = compounds of the formula (I), 1st measurement, read-out: MMP-9 inhibition activities IC50, 1st
[6] = compounds of the formula (I), 2nd measurement, read-out: MMP-9 inhibition activities IC50, 2nd
[7] = compounds of the formula (I), average of 1st and 2nd (or single measurement), read-out: MMP-9 inhibition activities IC50, Average

SMILES: CNC(=C[N+](=O)[O-])NNc1ccccc1[N+](=O)[O-] [compound 11]
IC50 [1, 5]: 31.9 µM
IC50 [1, 6]: 33.7 µM
IC50 [1, 7]: 32.8 µM
melting point: 194 °C (dec.)

SMILES: CNC(=C[N+](=O)[O-])NNc1ccc([N+](=O)[O-])cc1 [compound 13]
IC50 [1, 5]: 20.1 µM
IC50 [1, 6]: 16.1 µM
IC50 [1, 7]: 18.1 µM
melting point: 186 °C (dec.)

SMILES: CNC(=C[N+](=O)[O-])NN=Cc1ccccc1 [compound 18]
IC50 [1, 5]: 18.3 µM
IC50 [1, 6]: 26.6 µM
IC50 [1, 7]: 22.5 µM
melting point: 159 to 160 °C

SMILES: CNC(=C[N+](=O)[O-])NNc1ncc(C(F)(F)F)cc1Cl [compound 21]
IC50 [1, 5]: 11.7 µM
IC50 [1, 6]: 18.1 µM
IC50 [1, 7]: 14.9 µM
melting point: 168 °C (dec.)

SMILES: CNC(=C[N+](=O)[O-])NNC(O)C(F)(F)F (centres unmarked) [compound 23]
IC50 [1, 5]: 42.5 µM
IC50 [1, 6]: 54.8 µM
IC50 [1, 7]: 48.7 µM
melting point: 144 to 145 °C

SMILES: CNC(=C[N+](=O)[O-])NN=C(C)C [compound 25]
IC50 [1, 5]: 21.9 µM
IC50 [1, 6]: 30 µM
IC50 [1, 7]: 26 µM
melting point: 136 °C

SMILES: CNC(=C[N+](=O)[O-])NN=C(C)OC [compound 26]
IC50 [1, 5]: 31.9 µM
IC50 [1, 6]: 31.5 µM
IC50 [1, 7]: 31.7 µM
melting point: 159 °C (dec.)

SMILES: CNC(=C[N+](=O)[O-])NNc1cc(C(F)(F)F)cc(C)n1 [compound 27]
IC50 [1, 5]: 26.6 µM
IC50 [1, 6]: 24.5 µM
IC50 [1, 7]: 25.6 µM
melting point: 161 to 162 °C

SMILES: CNC(=C[N+](=O)[O-])NN=C(C)c1cccs1 [compound 32]
IC50 [1, 5]: 26.7 µM
IC50 [1, 6]: 24 µM
IC50 [1, 7]: 25.4 µM
melting point: 165 °C (dec.)

SMILES: CNC(=C[N+](=O)[O-])NN=C(C)c1ccccn1 [compound 33]
IC50 [1, 5]: 30.6 µM
IC50 [1, 6]: 31.9 µM
IC50 [1, 7]: 31.8 µM
melting point: 170 °C (dec.)

SMILES: CNC(=C[N+](=O)[O-])NN=C(C)c1cccnc1 [compound 34]
IC50 [1, 5]: 30.2 µM
IC50 [1, 6]: 26.9 µM
IC50 [1, 7]: 28.6 µM
melting point: 181 °C (dec.)

SMILES: CNC(=C[N+](=O)[O-])NN(C)c1ccc(C(F)(F)F)cn1 [compound 36]
IC50 [1, 5]: 19.7 µM
IC50 [1, 6]: 24.3 µM
IC50 [1, 7]: 22 µM
melting point: 153 to 154 °C

SMILES: CNC(=C[N+](=O)[O-])NN(C)c1cccc(C(F)(F)F)n1 [compound 39]
IC50 [1, 5]: 16.1 µM
IC50 [1, 6]: 29.2 µM
IC50 [1, 7]: 22.7 µM
melting point: 191 to 192 °C (dec.)

SMILES: CNC(=C[N+](=O)[O-])NNc1cc(C(F)(F)F)cc(C(F)(F)F)n1 [compound 44]
IC50 [1, 5]: 19.6 µM
IC50 [1, 6]: 26.8 µM
IC50 [1, 7]: 23.2 µM
melting point: 192 to 193 °C (dec.)

SMILES: CNC(=C[N+](=O)[O-])NNc1ncccn1 [compound 45]
IC50 [1, 5]: 33.8 µM
IC50 [1, 6]: 26.3 µM
IC50 [1, 7]: 30.1 µM
melting point: 182 to 183 °C (dec.)

Results, then the compound that gave them:

IC50 [1, 2]: 31.6 µM
IC50 [1, 3]: 26 µM
IC50 [1, 4]: 28.8 µM
melting point: 153 to 155 °C
SMILES: CSC(=C[N+](=O)[O-])Nc1ccc2c(c1)OCO2 [Intermediate 51]

IC50 [1, 2]: 61.5 µM
IC50 [1, 3]: 50.4 µM
IC50 [1, 4]: 56 µM
melting point: 221 to 222 °C (dec.)
SMILES: CSC(=C[N+](=O)[O-])Nc1ccc2c(c1)C(=O)CO2 [Intermediate 52]

IC50 [1, 2]: 38.7 µM
IC50 [1, 3]: 33.9 µM
IC50 [1, 4]: 36.3 µM
melting point: 184 to 188 °C
SMILES: CSC(=C[N+](=O)[O-])Nc1c(C)nn(C)c1C [Intermediate 54]

IC50 [1, 2]: 32.5 µM
IC50 [1, 3]: 25.5 µM
IC50 [1, 4]: 29 µM
melting point: 214 to 216 °C
SMILES: CSC(=C[N+](=O)[O-])Nc1ccc2cn[nH]c2c1 [Intermediate 55]

IC50 [1, 2]: 8.2 µM
IC50 [1, 4]: 8.2 µM
melting point: 205 °C (dec.)
SMILES: CSC(=C[N+](=O)[O-])NS(=O)(=O)c1ccc2ccccc2c1 [Intermediate 61]

IC50 [1, 2]: 4.5 µM
IC50 [1, 4]: 4.5 µM
melting point: 75 to 77 °C
SMILES: CSC(=C[N+](=O)[O-])NS(=O)(=O)c1ccc(-c2ccccc2)cc1 [Intermediate 62]

IC50 [1, 5]: 36.7 µM
IC50 [1, 6]: 30.1 µM
IC50 [1, 7]: 33.4 µM
melting point: 178 °C (dec.)
SMILES: CNC(=C[N+](=O)[O-])NNc1ccccc1Cl [compound 8]

IC50 [1, 5]: 47.4 µM
IC50 [1, 6]: 42.2 µM
IC50 [1, 7]: 44.8 µM
melting point: 171 °C (dec.)
SMILES: CNC(=C[N+](=O)[O-])NNc1ccccc1C [compound 14]

IC50 [1, 5]: 43.8 µM
IC50 [1, 6]: 28.8 µM
IC50 [1, 7]: 36.3 µM
melting point: 168 °C (dec.)
SMILES: CNC(=C[N+](=O)[O-])NNc1ccc(OC)cc1 [compound 17]

IC50 [1, 5]: 17.9 µM
IC50 [1, 6]: 17.4 µM
IC50 [1, 7]: 17.7 µM
melting point: 156 °C (dec.)
SMILES: CNC(=C[N+](=O)[O-])NNc1ccccn1 [compound 22]

IC50 [1, 5]: 13.7 µM
IC50 [1, 6]: 19.1 µM
IC50 [1, 7]: 16.4 µM
melting point: 199 °C (dec.)
SMILES: CNC(=C[N+](=O)[O-])NN=C(C)c1ccncc1 [compound 38]

IC50 [1, 5]: 13.5 µM
IC50 [1, 6]: 28.7 µM
IC50 [1, 7]: 21.1 µM
melting point: 190 °C
SMILES: CNC(=C[N+](=O)[O-])NNc1ccc(C(F)(F)F)cc1 [compound 40]

IC50 [1, 5]: 15.1 µM
IC50 [1, 6]: 13.7 µM
IC50 [1, 7]: 14.4 µM
melting point: 155 to 157 °C
SMILES: COc1ccc(NC(=C[N+](=O)[O-])NNc2ccc(C(F)(F)F)cn2)cc1 [compound 41]

IC50 [1, 5]: 41.4 µM
IC50 [1, 6]: 40.7 µM
IC50 [1, 7]: 41.4 µM
melting point: 250 °C
SMILES: CNC(=C[N+](=O)[O-])NNc1cccc(C(=O)O)c1 [compound 42]

IC50 [1, 5]: 20.6 µM
IC50 [1, 6]: 18.2 µM
IC50 [1, 7]: 19.4 µM
melting point: 191 °C (dec.)
SMILES: Cc1ccc(NC(=C[N+](=O)[O-])NN)cc1 [compound 48]

IC50 [1, 5]: 15.6 µM
IC50 [1, 6]: 18 µM
IC50 [1, 7]: 16.8 µM
melting point: 195 °C (dec.)
SMILES: COc1ccc(NC(=C[N+](=O)[O-])NN)cc1 [compound 49]

IC50 [1, 5]: 25.7 µM
IC50 [1, 6]: 23 µM
IC50 [1, 7]: 24.3 µM
melting point: 175 °C (dec.)
SMILES: NNC(=C[N+](=O)[O-])Nc1cccnc1 [compound 50]

IC50 [1, 5]: 21.6 µM
IC50 [1, 6]: 30.2 µM
IC50 [1, 7]: 25.9 µM
melting point: 144 °C
SMILES: COc1cccc(NC(=C[N+](=O)[O-])NN)c1 [compound 52]

IC50 [1, 5]: 22.6 µM
IC50 [1, 6]: 29.3 µM
IC50 [1, 7]: 26 µM
melting point: 183.5 °C (dec.)
SMILES: NNC(=C[N+](=O)[O-])Nc1ccc(F)cc1 [compound 53]

IC50 [1, 5]: 25.3 µM
IC50 [1, 6]: 30 µM
IC50 [1, 7]: 27.7 µM
melting point: 176 °C (dec.)
SMILES: NNC(=C[N+](=O)[O-])NCc1ccncc1 [compound 55]

IC50 [1, 5]: 39.9 µM
IC50 [1, 6]: 33.5 µM
IC50 [1, 7]: 36.7 µM
melting point: 148 °C
SMILES: COc1ccc(NC(=C[N+](=O)[O-])NN)cc1OC [compound 56]

IC50 [1, 5]: 38.7 µM
IC50 [1, 6]: 35.1 µM
IC50 [1, 7]: 36.6 µM
melting point: 135.5 to 136 °C
SMILES: COc1ccccc1NC(=C[N+](=O)[O-])NN [compound 57]
